Consider 19 compounds from US20070015823A1, “Ambruticin VS compounds” (priority 2004, published 2007).

One experiment relates to Candida albicans. Particulars: Candida albicans.
The test system of a further experiment is Cryptococcus neoformans. Nature of the experiment: Broth microdilution antifungal susceptibility, NCCLS M38-A. The settings on record: 50% growth inhibition, range = minimum and maximum of multiple assays; for MIC C. neoformans 97-14: strain 97-14; for MIC C. neoformans 11239: strain 11239; for MIC C. neoformans 11240: strain 11240.
The next experiment has as its system A. flavus ATCC 204304. Described as above. In kind it is cell-based, Aspergillus flavus. Particulars: minimal concentration inhibiting >95% growth; average of at least two assays (except I-l and I-x).
The subject of a further experiment is A. fumigatus ATCC 204305. The experiment is described as above. The format is cell-based, Aspergillus fumigatus. Particulars: minimal concentration inhibiting >95% growth; average of at least two assays (except I-l and I-x).
The next experiment relates to Blastomyces dermatitidis. The description is as above. The format is cell-based.
In a further experiment the test system is Histoplasma capsulatum. In kind it is cell-based.

≈ marks a conversion by molar mass, not a printed value. Like-named read-outs stand apart in the source and are kept apart here.

For `CC[C@H](C)C[C@H](C)CCCCCCCCC(=O)N[C@H]1C[C@@H](O)[C@@H](NCCN)NC(=O)[C@@H]2[C@@H](O)CCN2C(=O)[C@H]([C@H](O)CCN)NC(=O)[C@H]([C@H](O)[C@@H](O)c2ccc(O)cc2)NC(=O)[C@@H]2C[C@@H](O)CN2C(=O)[C@H]([C@@H](C)O)NC1=O` [Caspofungin, reference compound], the MIC in the experiment on Candida albicans (read-out: MIC C. albicans 24433) and in the experiment on Candida albicans (read-out: MIC C. albicans 90028) was 2 µg/mL (≈ 1.83 µM) throughout.
As for `CC[C@H]1O[C@@H](/C(C)=C/[C@H](C)/C=C/[C@H]2[C@@H](C)[C@@H]2/C=C/[C@@H]2O[C@H](CC(=O)O)C[C@H](N(C)C3CCCC3)[C@H]2O)CC=C1C` [I-c, (5S,6R)-5-(N-cyclopentyl-methylamino)-6-hydroxypolyangioic acid], in the experiment on Cryptococcus neoformans, the “MIC C. neoformans 97-14” value is 1 µg/mL (≈ 1.8 µM), the “MIC C. neoformans 11239” value amounted to 2 µg/mL (≈ 3.6 µM) and the “MIC C. neoformans 11240” value amounted to 2 µg/mL (≈ 3.6 µM). The “MIC0 A. flavus ATCC 204304” value with A. flavus ATCC 204304 is 2.0 µg/mL. In addition, the “MIC0 A. fumigatus ATCC 204305” value in the experiment on A. fumigatus ATCC 204305 came to 2.67 µg/mL.
Consider `CC[C@H]1O[C@@H](/C(C)=C/[C@H](C)/C=C/[C@H]2[C@@H](C)[C@@H]2/C=C/[C@@H]2O[C@H](CCO)C[C@H](N(C)CCO)[C@H]2O)CC=C1C` [I-nn, (5S,6R)-5-[N-(2-hydroxyethyl)methylamino]polyangi-1,6-diol], for which, in the experiment with Blastomyces dermatitidis, the “MIC B. dermatitidis Gu” value was greater than 12.5 µg/mL, the “MIC B. dermatitidis Kr” value was greater than 12.5 µg/mL and the “MIC B. dermatitidis V” value is greater than 12.5 µg/mL. In the experiment on Histoplasma capsulatum, the “MIC H. capsulatum G217B” value was less than 0.19 µg/mL and the “MIC H. capsulatum GS20” value was less than 0.19 µg/mL. In addition, in the experiment on A. flavus ATCC 204304, the “MIC0 A. flavus ATCC 204304” value was 4 µg/mL. In the experiment on A. fumigatus ATCC 204305, the “MIC0 A. fumigatus ATCC 204305” value came out at 32 µg/mL.
For `CC[C@H]1O[C@@H](/C(C)=C/[C@H](C)/C=C/[C@H]2[C@@H](C)[C@@H]2/C=C/[C@@H]2O[C@H](CC(=O)O)C[C@H](NC(C)C)[C@H]2O)CC=C1C` [I-kk, (5S,6R)-5-(isopropylamino)-6-hydroxypolyangioic acid], in the experiment on Blastomyces dermatitidis, the “MIC B. dermatitidis Gu” value came out at 12.5 µg/mL (≈ 24.2 µM), the “MIC B. dermatitidis Kr” value is greater than 12.5 µg/mL and the “MIC B. dermatitidis V” value is greater than 12.5 µg/mL. Besides, in the experiment on Histoplasma capsulatum, the “MIC H. capsulatum G217B” value was less than 0.19 µg/mL and the “MIC H. capsulatum GS20” value is less than 0.19 µg/mL. In the experiment with Cryptococcus neoformans, the “MIC C. neoformans 97-14” value turned out to be 0.25 µg/mL (≈ 0.485 µM), the “MIC C. neoformans 11239” value is 0.125 µg/mL (≈ 0.242 µM) and the “MIC C. neoformans 11240” value is 0.0625 µg/mL (≈ 0.121 µM). Also, the “MIC0 A. flavus ATCC 204304” value in the experiment on A. flavus ATCC 204304 was found to be 1.1 µg/mL. Moreover, the “MIC0 A. fumigatus ATCC 204305” value against A. fumigatus ATCC 204305 turned out to be 1 µg/mL.
Consider `CC[C@H]1O[C@@H](/C(C)=C/[C@H](C)/C=C/[C@H]2[C@@H](C)[C@@H]2/C=C/[C@@H]2O[C@H](CC(=O)O)CC(=O)[C@H]2O)CC=C1C` [5-keto ambruticin S, (6R)-5-Oxo-6-hydroxypolyangioic acid, reference compound], for which, in the experiment on Cryptococcus neoformans, the “MIC C. neoformans 97-14” value came to 0.5 µg/mL (≈ 1.06 µM), the “MIC C. neoformans 11239” value was found to be 2 µg/mL (≈ 4.23 µM) and the “MIC C. neoformans 11240” value stood at 2 µg/mL (≈ 4.23 µM). In addition, in the experiment with A. flavus ATCC 204304, the “MIC0 A. flavus ATCC 204304” value came out at 1.0 µg/mL. Also, in the experiment with A. fumigatus ATCC 204305, the “MIC0 A. fumigatus ATCC 204305” value was determined as 2.0 µg/mL.
As for `CC[C@H]1O[C@@H](/C(C)=C/[C@H](C)/C=C/[C@H]2[C@@H](C)[C@@H]2/C=C/[C@@H]2O[C@H](CCO)C[C@H](N(C)C(C)C)[C@H]2O)CC=C1C` [I-oo, (5S,6R)-5-(N-isoproyl-methylamino)polyangi-1,6-diol], in the experiment on Blastomyces dermatitidis, the “MIC B. dermatitidis Gu” value turned out to be 0.39 µg/mL (≈ 0.756 µM), the “MIC B. dermatitidis Kr” value is greater than 12.5 µg/mL and the “MIC B. dermatitidis V” value is greater than 12.5 µg/mL. Also, in the experiment on Histoplasma capsulatum, the “MIC H. capsulatum G217B” value was less than 0.19 µg/mL and the “MIC H. capsulatum GS20” value was less than 0.19 µg/mL. Also, in the experiment with A. flavus ATCC 204304, the “MIC0 A. flavus ATCC 204304” value stood at 2 µg/mL. Besides, the “MIC0 A. fumigatus ATCC 204305” value against A. fumigatus ATCC 204305 worked out at 32 µg/mL.
On to `CC[C@H]1O[C@@H](/C(C)=C/[C@H](C)/C=C/[C@H]2[C@@H](C)[C@@H]2/C=C/[C@@H]2O[C@H](CC(=O)O)C[C@H](N(C)CC3CC3)[C@H]2O)CC=C1C` [I-b, (5S,6R)-5-(N-cyclopropylmethyl-methylamino)-6-hydroxypolyangioic acid], for which, in the experiment on Cryptococcus neoformans, the “MIC C. neoformans 97-14” value is 2 µg/mL (≈ 3.69 µM), the “MIC C. neoformans 11239” value came out at 2 µg/mL (≈ 3.69 µM) and the “MIC C. neoformans 11240” value came to 2 µg/mL (≈ 3.69 µM). Further, the “MIC0 A. flavus ATCC 204304” value against A. flavus ATCC 204304 worked out at 1.5 µg/mL. In addition, the “MIC0 A. fumigatus ATCC 204305” value against A. fumigatus ATCC 204305 worked out at 1.5 µg/mL.
Turning to `CC[C@H]1O[C@@H](/C(C)=C/[C@H](C)/C=C/[C@H]2[C@@H](C)[C@@H]2/C=C/[C@@H]2O[C@H](CCO)C[C@H](NC)[C@H]2O)CC=C1C` [I-ee, (5S,6R)-5-(methylamino)polyangi-1,6-diol], in the experiment with Cryptococcus neoformans, the “MIC C. neoformans 97-14” value turned out to be 2 µg/mL (≈ 4.22 µM), the “MIC C. neoformans 11239” value turned out to be 2 µg/mL (≈ 4.22 µM) and the “MIC C. neoformans 11240” value turned out to be 2 µg/mL (≈ 4.22 µM). Further, in the experiment with A. flavus ATCC 204304, the “MIC0 A. flavus ATCC 204304” value is 3 µg/mL. Further, the “MIC0 A. fumigatus ATCC 204305” value against A. fumigatus ATCC 204305 came out at 9.5 µg/mL.
For the compound `CC[C@H]1O[C@@H](/C(C)=C/[C@H](C)/C=C/[C@H]2[C@@H](C)[C@@H]2/C=C/[C@@H]2O[C@H](CC(=O)O)C[C@H](N(C)C(=O)NCc3ccccc3)[C@H]2O)CC=C1C` [I-p, (5S,6R)-5-(3-benzyl-1-methylureido)-6-hydroxypolyangioic acid], in the experiment with A. flavus ATCC 204304, the “MIC0 A. flavus ATCC 204304” value was found to be 32 µg/mL. In addition, the “MIC0 A. fumigatus ATCC 204305” value in the experiment on A. fumigatus ATCC 204305 stood at 32 µg/mL.
20,21-dihydro ambruticin VS4 [IV-e]: in the experiment on A. flavus ATCC 204304, the “MIC0 A. flavus ATCC 204304” value was determined as 1 µg/mL. In the experiment on A. fumigatus ATCC 204305, the “MIC0 A. fumigatus ATCC 204305” value was determined as 2.5 µg/mL.
Consider `CC[C@H]1O[C@@H](/C(C)=C/[C@H](C)/C=C/[C@H]2[C@@H](C)[C@@H]2/C=C/[C@@H]2O[C@H](CC(=O)O)C[C@H](NCCO)[C@H]2O)CC=C1C` [I-ll, (5S,6R)-5-[(2-hydroxyethyl)amino]-6-hydroxypolyangioic acid], for which, in the experiment on Cryptococcus neoformans, the “MIC C. neoformans 97-14” value came out at 0.5 µg/mL (≈ 0.966 µM), the “MIC C. neoformans 11239” value worked out at 1 µg/mL (≈ 1.93 µM) and the “MIC C. neoformans 11240” value stood at 0.5 µg/mL (≈ 0.966 µM). Besides, the “MIC0 A. flavus ATCC 204304” value in the experiment on A. flavus ATCC 204304 came out at 10 µg/mL. For the same compound, the “MIC0 A. fumigatus ATCC 204305” value in the experiment on A. fumigatus ATCC 204305 was 10 µg/mL.
In the case of `CC[C@H]1O[C@@H](/C(C)=C/[C@H](C)/C=C/[C@H]2[C@@H](C)[C@@H]2/C=C/[C@@H]2O[C@H](CC(=O)O)C[C@H](N(C)C(=O)NCc3ccccc3)[C@H]2OC(=O)NCc2ccccc2)CC=C1C` [I-dd, (5S,6R)-5-(3-benzyl-1-methylureido)-6-(benzylcarbamoyl)polyangioic acid], in the experiment on A. flavus ATCC 204304, the “MIC0 A. flavus ATCC 204304” value was greater than 32 µg/mL. For the same compound, the “MIC0 A. fumigatus ATCC 204305” value with A. fumigatus ATCC 204305 is greater than 32 µg/mL.
As to `CC[C@H]1O[C@@H](/C(C)=C/[C@H](C)/C=C/[C@H]2[C@@H](C)[C@@H]2/C=C/[C@@H]2O[C@H](CC(=O)O)C[C@H](NC(C)C)[C@H]2O)CCC1C` (some centres unmarked) [IV-d], the “MIC0 A. flavus ATCC 204304” value against A. flavus ATCC 204304 was determined as 0.88 µg/mL. In the experiment with A. fumigatus ATCC 204305, the “MIC0 A. fumigatus ATCC 204305” value was found to be 2.5 µg/mL.
On the same counts, the results for `CC[C@H]1O[C@@H](/C(C)=C/[C@H](C)/C=C/[C@H]2[C@@H](C)[C@@H]2/C=C/[C@@H]2O[C@H](CCO)C[C@H](NCC(F)F)[C@H]2O)CC=C1C` [I-jjj, (5S,6R)-5-(2,2-difluroethyl)aminopolyangi-1,6-diol] are 8 µg/mL and 8 µg/mL.
On the same counts, the results for `CC[C@H]1O[C@@H](/C(C)=C/[C@H](C)/C=C/[C@H]2[C@@H](C)[C@@H]2/C=C/[C@@H]2O[C@H](CC(=O)O)C[C@H](NCc3ccc(OC)c(OC)c3)[C@H]2O)CC=C1C` [I-hhh, (5S,6R)-5-(3,4-dimethoxybenzyl)amino-6-hydroxypolyangioic acid] are greater than 32 µg/mL and greater than 32 µg/mL.
In the same order, the values of `CC[C@H]1O[C@@H](/C(C)=C/[C@H](C)/C=C/[C@H]2[C@@H](C)[C@@H]2/C=C/[C@@H]2O[C@H](CC=NO)C[C@H](NC)[C@H]2O)CC=C1C` [I-zz, (5S,6R)-5-methylamino-6-hydroxypolyangial oxime] are 8 µg/mL and 12 µg/mL.
In the case of `CC[C@H]1O[C@@H](/C(C)=C/[C@H](C)/C=C/[C@H]2[C@@H](C)[C@@H]2/C=C/[C@@H]2O[C@H](CC(=O)O)C[C@H](NC(=O)C(F)(F)F)[C@H]2O)CC=C1C` [I-fff, (5S,6R)-5-trifluroacetamido-6-hydroxypolyangioic acid], in the experiment on A. flavus ATCC 204304, the “MIC0 A. flavus ATCC 204304” value stood at 2 µg/mL. Further, the “MIC0 A. fumigatus ATCC 204305” value in the experiment on A. fumigatus ATCC 204305 came out at 3 µg/mL.
On the same counts, the results for `CC[C@H]1O[C@@H](/C(C)=C/[C@H](C)/C=C/[C@H]2[C@@H](C)[C@@H]2/C=C/[C@@H]2O[C@H](CC(=O)NCCN(C)C)C[C@H](N(C)C)[C@H]2O)CC=C1C` [I-qq, (5S,6R)-5-dimethylamino-6-hydroxy-N-[(2-dimethylamino)ethyl]polyangiamide] are greater than 32 µg/mL and 32 µg/mL.
On the same counts, the results for `CC[C@H]1O[C@@H](/C(C)=C/[C@H](C)/C=C/[C@H]2[C@@H](C)[C@@H]2/C=C/[C@@H]2O[C@H](CC(=O)O)C[C@H](N(C)C(=O)OC)[C@H]2O)CC=C1C` [I-o] are 32 µg/mL and 16 µg/mL.
